Where “and” joins values, the source holds several entries; their conditions need not be identical. Equal entries are not always repeated. Entries after “also recorded” stand apart in the source; their conditions may differ. Where two headings read alike, the source gives them in different places.
Molecular target: T1, endogenous ENaC in mpkCCDc14 cells (Mus musculus, UniProt Q61180+Q9WU38+Q9WU39)
T1 construct: endogenous ENaC in a mouse cortical collecting duct (mpkCCDc14) cell line; endogenous in cells; host or cells: mpkCCDc14 mouse cortical collecting duct cell line
Assay: Amiloride-sensitive short circuit current in mpkCCDc14 monolayers, Ussing chamber
Format: cell-based
Details: for Ki: mpkCCDc14 cells; for inhibition of amiloride sensitive short circuit currents: mpkCCDc14, increasing concentrations of peptide; for inhibition of transepithelial Na+ transport: peptide 3 μM in apical chamber; for reversibility of inhibition on washout: peptide 3 μM
Description: mpkCCDc14 Cell Culture—mpkCCDc14 cells were grown as previously reported (Bens, M., Vallet, V., Cluzeaud, F., Pascual-Letallec, L., Kahn, A., Rafestin-Oblin, M. E., Rossier, B. C., and Vandewalle, A. (1999), Corticosteroid-dependent sodium transport in a novel immortalized mouse collecting duct principal cell line, J. Am. Soc. Nephrol. 10, 923-934). mpkCCDc14 cells were subcultured onto permeable filter supports coated with collagen (0.4-μm pore size, 1-cm^2 surface area, Snapwell filters; Coming Inc., Acton, Mass.). Cells were kept on filters for at least 4 days in defined medium (Bens, M., Vallet, V., Cluzeaud, F., Pascual-Letallec, L., Kahn, A., Rafestin-Oblin, M. E., Rossier, B. C., and Vandewalle, A. (1999) J. Am. Soc. Nephrol. 10, 923-934 30) that was changed every second day. At least 24 h prior to the experiments, the culture medium was replaced with a minimal medium (without drugs or hormones) that contained only Dulbecco's modified Eagle's medium and Ham's F-12.
Short Circuit Current Measurements—Cell culture inserts were mounted in modified Ussing chambers (Harvard Apparatus, Holliston, Mass.), and the monolayers were continuously short-circuited with a voltage/current clamp system (Physiologic Instruments, San Diego, Calif.). A 2-mV bipolar pulse was applied periodically to measure the resistance of the monolayer. As previously described by Bridges et al. (Bridges, R. J., Newton, B. B., Pilewski, J. M., Devor, D. C., Poll, C. T., and Hall, R. L. (2001), Na+ transport in normal and CF human bronchial epithelial cells is inhibited by BAY 39-9437, Am. J. Physiol. 281, L16-L23 32, Na^+ transport in normal and CF human bronchial epithelial cells is inhibited by BAY 39-9437), the bath solution contained (in mM) 120 NaCl, 25 NaHCO3, 3.3 KH2PO4, 0.8 K2HPO4, 1.2 MgCl2, 1.2 CaCl2, and 10 glucose. The pH of this solution was 7.4 when gassed with a mixture of 95% O2-5% CO2 at 37° C.
(FIG. 6A) mpkCCDc14cells cultured on permeable membrane supports and mounted in a modified Ussing chamber were continuously short-circuited by a voltage clamp amplifier (Physiologic Instruments, San Diego, Calif.). Transepithelial resistance was monitored by applying a 4 mV bipolar pulse every 60 seconds. Where indicated, a 43 residue peptide corresponding to E144-K186 of mouse γ-ENaC (γ-peptide) was added to the apical chamber at a final concentration of 3 μM. […] Data presented as mean +/−standard error (n=8).
Vectors and Cell Culture—Wild-type, C-terminal and double epitope tagged mouse ENaC subunit cDNAs were previously described (Hughey, R. P., Mueller, G. M., Bruns, J. B., Kinlough, C. L., Poland, P. A., Harkleroad, K. L., Carattino, M. D., and Kleyman, T. R. (2003) J Biol Chem 278, 37073-37082 and Ahn, Y. J., Brooker, D. R., Kosari, F., Harte, B. J., Li, J., Mackler, S. A., and Kleyman, T. R. (1999), Cloning and functional expression of the mouse epithelial sodium channel, Am J Physiol 277, F121-129). The γ subunit mutations were generated in pcDNA3.1 (+) using a standard two-step PCR method. A cDNA clone (IMAGE #: 3600399) encoding full length mouse prostasin was obtained from Open Biosystems (Huntsville, Ala.) and sub-cloned into pcDNA3.1 (+) (Invitrogen, Carlsbad, Calif.). MDCK type 1 cells were a gift from Barry M. Gumbiner (Memorial Sloan-Kettering Cancer Center, New York) and were cultured as previously described (Lavelle, J. P., Negrete, H. O., Poland, P. A., Kinlough, C. L., Meyers, S. D., Hughey, R. P., and Zeidel, M. L. (1997), Low permeabilities of MDCK cell monolayers: a model barrier epithelium, Am J Physiol 273, F67-75). CCD (mpkCCDc14) cells were a gift from Alain Vandewalle (Institut National de la Santéet de la Recherche Médicale, Paris, France) and were cultured as previously described (Bens, M., Vallet, V., Cluzeaud, F., Pascual-Letallec, L., Kahn, A., Rafestin-Oblin, M. E., Rossier, B. C., and Vandewalle, A. (1999) J Am Soc Nephrol 10, 923-934).

T1 sequence (Q61180 1-205): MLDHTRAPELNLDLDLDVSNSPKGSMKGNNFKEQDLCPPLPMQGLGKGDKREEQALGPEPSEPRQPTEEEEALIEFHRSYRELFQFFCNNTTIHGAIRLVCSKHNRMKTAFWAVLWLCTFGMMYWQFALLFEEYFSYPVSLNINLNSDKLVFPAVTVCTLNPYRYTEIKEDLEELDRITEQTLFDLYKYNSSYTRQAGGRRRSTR
T1 sequence (Q61180 232-699): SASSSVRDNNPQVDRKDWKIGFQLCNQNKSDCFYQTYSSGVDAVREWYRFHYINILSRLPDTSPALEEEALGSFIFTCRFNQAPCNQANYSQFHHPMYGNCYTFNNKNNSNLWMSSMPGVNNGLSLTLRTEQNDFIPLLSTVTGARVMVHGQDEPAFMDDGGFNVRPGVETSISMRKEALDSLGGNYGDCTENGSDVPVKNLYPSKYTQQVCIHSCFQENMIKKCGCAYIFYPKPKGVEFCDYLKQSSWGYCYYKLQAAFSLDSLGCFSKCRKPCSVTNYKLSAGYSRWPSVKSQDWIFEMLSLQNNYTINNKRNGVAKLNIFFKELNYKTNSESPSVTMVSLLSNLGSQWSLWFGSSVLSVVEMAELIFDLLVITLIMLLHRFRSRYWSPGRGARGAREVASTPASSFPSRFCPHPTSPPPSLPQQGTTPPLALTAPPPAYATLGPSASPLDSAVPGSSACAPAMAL
T1 sequence (Q9WU38 whole entry): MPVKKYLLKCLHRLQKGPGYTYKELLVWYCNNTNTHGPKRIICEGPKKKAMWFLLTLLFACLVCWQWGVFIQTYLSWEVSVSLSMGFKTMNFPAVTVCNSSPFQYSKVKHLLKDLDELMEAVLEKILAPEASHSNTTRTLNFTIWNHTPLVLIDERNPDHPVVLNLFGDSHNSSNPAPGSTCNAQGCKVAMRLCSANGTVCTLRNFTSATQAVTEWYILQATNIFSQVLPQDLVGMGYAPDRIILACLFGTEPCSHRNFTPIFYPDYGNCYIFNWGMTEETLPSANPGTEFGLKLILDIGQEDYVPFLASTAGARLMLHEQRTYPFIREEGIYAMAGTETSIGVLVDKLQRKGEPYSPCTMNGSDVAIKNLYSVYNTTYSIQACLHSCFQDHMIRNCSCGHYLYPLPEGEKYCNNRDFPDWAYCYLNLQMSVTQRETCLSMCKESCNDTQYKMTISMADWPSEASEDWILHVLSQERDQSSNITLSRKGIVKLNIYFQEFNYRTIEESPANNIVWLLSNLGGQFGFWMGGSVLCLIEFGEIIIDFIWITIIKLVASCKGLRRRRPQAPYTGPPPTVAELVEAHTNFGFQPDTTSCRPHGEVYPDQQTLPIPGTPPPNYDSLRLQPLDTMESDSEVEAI
T1 sequence (Q9WU39 1-143): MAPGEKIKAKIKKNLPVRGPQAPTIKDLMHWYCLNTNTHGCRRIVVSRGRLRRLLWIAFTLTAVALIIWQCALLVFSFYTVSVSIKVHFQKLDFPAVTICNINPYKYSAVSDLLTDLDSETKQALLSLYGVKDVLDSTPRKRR
T1 sequence (Q9WU39 187-655): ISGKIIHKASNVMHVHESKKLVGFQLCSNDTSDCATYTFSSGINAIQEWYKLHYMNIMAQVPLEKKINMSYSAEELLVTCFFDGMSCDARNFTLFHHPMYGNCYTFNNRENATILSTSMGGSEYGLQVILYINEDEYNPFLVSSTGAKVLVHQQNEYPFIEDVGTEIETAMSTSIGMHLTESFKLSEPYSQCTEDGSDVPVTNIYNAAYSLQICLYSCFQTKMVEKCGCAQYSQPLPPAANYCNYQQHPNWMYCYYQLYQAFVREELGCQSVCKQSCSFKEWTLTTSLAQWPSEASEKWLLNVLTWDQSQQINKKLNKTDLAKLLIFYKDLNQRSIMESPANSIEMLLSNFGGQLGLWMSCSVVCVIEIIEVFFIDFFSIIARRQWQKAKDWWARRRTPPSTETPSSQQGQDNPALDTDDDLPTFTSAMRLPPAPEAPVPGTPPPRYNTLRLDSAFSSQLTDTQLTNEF

Ac-DLRGALPHPLQRLRTPPPPNPARSAR-NH2 [α-26]
Ki (stated jointly for HBE or mpkCCDc14, read-out: Ki, block of endogenous ENaC activity): 50 to 100 µM

Ac-EAGSMRSTWEGTPPRFLNLIPLLVFNENEKGKARDFFTGRKRK-NH2 [γ-43]
increase of the IC50 for amiloride block (CCD cells, 3 μM γ-43): 60% | IC50 (mouse CCD (mpkCCDc14), nonlinear curve fitting, read-out: IC50, inhibition of short circuit currents): 2 to 3 µM and 3.2 µM | inhibition of amiloride sensitive short circuit currents (listed as γ cleavage product): inhibited in a dose dependent manner | inhibition of amiloride sensitive short circuit currents (listed as γ-peptide): inhibited in a dose dependant manner | Ki (stated jointly for HBE and mpkCCDc14, read-out: apparent Ki, inhibition of endogenous ENaC activity): ~2 µM | inhibition of transepithelial Na+ transport: rapidly inhibited; also recorded: marked inhibition | inhibition of transepithelial Na+ transport (listed as γ-peptide): marked inhibition | reversibility of inhibition on washout: reversible; also recorded: relieved by washout | reversibility of inhibition on washout (listed as γ-peptide): reversibly inhibits; also recorded: relieved by wash out
